Measured values taken from publication PMC9527238, “Glutamate and GABAA receptor crosstalk mediates homeostatic regulation of neuronal excitation in the mammalian brain” (Signal Transduction and Targeted Therapy, 2022).

What was measured:
Assay type in all cases: cell-based
rat α1β2 GABAARs = molecular target: T1, rat α1β2 GABAARs (Rattus norvegicus, UniProt P62813+P63138); experiment: Whole-cell patch clamp of GABA-evoked currents, HEK293 cells expressing α1β2
T1 construct: expressed in transfected cells; host or cells: HEK293
Description: Co-expression of the α and β subunits is the minimum requirement for a functional recombinant GABAAR expressed in a heterologous cell line such as HEK293, while co-expression of the α, β and γ subunits is required for the recombinant receptor with a full pharmacological profile.[2] We therefore transiently expressed either rat α1β2 or α1β2γ2 subunits in HEK293 cells.
HEK293 cells were transiently transfected with rat GABAAR α1/β2 (a–e) or α1/β2/γ2 (f) subunits. Whole-cell voltage-clamp recordings were performed with a chloride-based intracellular recording solution at a holding membrane potential of −60 mV.
(§1) HEK293 cells were cultured in DMEM (Invitrogen) supplemented with 10% fetal bovine serum. Cells were grown to 40–60% confluence and transiently transfected using Lipofectamine 2000 (Invitrogen) with 1:0.5–1 plasmid/lipid ratio. Cells were transfected with a pBK-CMV expression vector containing a rat recombinant GABAAR α, β or γ subunits. Co-transections were done with a plasmid ratio of 1:1 αβ and 2:2:1 for αβγ subunit combinations, respectively. pcDNA3.1-GFP was also co-transfected along with GABAAR subunits as a transfected marker in order to facilitate the visualization of the transfected cells during electrophysiological experiments. Cells were re-plated on glass coverslips after 15–20 h transfection and were cultured for an additional 15–24 h before whole-cell patch-clamp recordings.
(§2) Whole-cell patch-clamp recordings were performed under voltage-clamp mode using an Axopatch 200B or 1D patch-clamp amplifier (Molecular Devices) on HEK293 cells and cultured neurons. Whole-cell currents were recorded at a holding potential of −60 mV, and signals were filtered at 2 kHz, digitized at 10 kHz (Digidata 1322 A). Recording pipettes (3–5 MΩ) were filled with the intracellular solution that contained (mM): CsCl 140, HEPES 10, Mg-ATP 4, QX-314 5, pH 7.20; osmolarity, 290–295 mOsm. BAPTA (10 mM) was added in the intracellular solution. The coverslips were continuously superfused with the extracellular solution containing (mM): NaCl 140, KCl 5.4, HEPES 10, MgCl2 1.0, CaCl2 1.3, glucose 20, pH 7.4; osmolarity, 305–315 mOsm. […] Dose–response curves were created by fitting data to Hill equation: I = Imax/[1 + (EC50/[A])^n], where I is the current, Imax is the maximum current, [A] is a given concentration of agonist, n is the Hill coefficient. […] All experiments were performed at room temperature.

α1 β2^E181G γ2 GABAAR = molecular target: T2, α1 β2^E181G γ2 GABAAR (Rattus norvegicus, UniProt P62813+P63138, E206G); experiment: Patch clamp, HEK293, mutant GABAAR; settings: normalized to wild-type α1β2γ2; for Relative potentiation: glutamate 100 μM co-applied with GABA 1 μM
T2 construct: expressed in transfected cells; host or cells: HEK293
Description: (§3) The subunits are color-coded individually. The boxed regions are further enlarged in the middle panels, highlighting the predicted glutamate binding pocket in the α+ and β− interface, just below the loop C. […] Relative potentiation was obtained by normalizing potentiation observed in the mutated receptor to that in the respective wild-type receptor.
(§4) To positively confirm one of these two putative binding sites involved in glutamate binding, we performed a systemic mutational analysis of critical amino acids around these two sites followed by electrophysiological characterizations of their impacts on glutamate potentiation in HEK293 cells expressing wild-type or mutated α1β2γ2 GABAARs (Table 1).
as §1
(§5) The site-directed mutagenesis of α, β or γ subunits were performed by using the QuikChange method (Stratagene). […] Wild-type or mutant subunits were transfected in HEK293 cells and subjected to electrophysiology examinations.
as §2

α1^E137G β2 γ2 GABAAR = molecular target: T3, α1^E137G β2 γ2 GABAAR (Rattus norvegicus, UniProt P62813+P63138, E164G); experiment: Patch clamp, HEK293, mutant GABAAR; settings: Glu 1 mM; GABA 1 µM; normalized to wild-type α1β2γ2
T3 construct: expressed in transfected cells; host or cells: HEK293
Description: as §3, §4, §1, §5, §2

α1^K155D β2 γ2 GABAAR = molecular target: T4, α1^K155D β2 γ2 GABAAR (Rattus norvegicus, UniProt P62813+P63138, K182D); experiment: Patch clamp, HEK293, mutant GABAAR; settings: Glu 1 mM; GABA 1 µM; normalized to wild-type α1β2γ2
T4 construct: expressed in transfected cells; host or cells: HEK293
Description: as §3, §4, §1, §5, §2

α1K155Dβ2γ2E168K GABAAR = molecular target: T5, α1K155Dβ2γ2E168K GABAAR (Rattus norvegicus, UniProt P18508+P62813+P63138, E206K/K182D); experiment: Patch clamp, HEK293, mutant GABAAR
T5 construct: expressed in transfected cells; host or cells: HEK293
Description: as §1, §5
(§6) Whole-cell patch-clamp recordings were performed under voltage-clamp mode using an Axopatch 200B or 1D patch-clamp amplifier (Molecular Devices) on HEK293 cells and cultured neurons. Whole-cell currents were recorded at a holding potential of −60 mV, and signals were filtered at 2 kHz, digitized at 10 kHz (Digidata 1322 A). Recording pipettes (3–5 MΩ) were filled with the intracellular solution that contained (mM): CsCl 140, HEPES 10, Mg-ATP 4, QX-314 5, pH 7.20; osmolarity, 290–295 mOsm. BAPTA (10 mM) was added in the intracellular solution. The coverslips were continuously superfused with the extracellular solution containing (mM): NaCl 140, KCl 5.4, HEPES 10, MgCl2 1.0, CaCl2 1.3, glucose 20, pH 7.4; osmolarity, 305–315 mOsm.

[1] = molecular target: T6, α1β2E181Gγ2 GABAAR with γ2 R197E mutation (Rattus norvegicus, UniProt P18508+P62813+P63138, E206G/R235E); experiment: Patch clamp, HEK293, mutant GABAAR
T6 construct: expressed in transfected cells; host or cells: HEK293
Description: as §1, §5, §6

α1/β3/γ2 GABAAR = molecular target: T7, α1/β3/γ2 GABAAR (Rattus norvegicus, UniProt P62813+P63079); experiment: Patch clamp, HEK293, β3-containing GABAAR; settings: wild-type α1/β3/γ2
T7 construct: expressed in transfected cells; host or cells: HEK293

αE137Gβ GABAAR = molecular target: T8, αE137Gβ GABAAR (Rattus norvegicus, UniProt P62813+P63138, E164G); experiment: Patch clamp, HEK293, mutant α1β2 GABAAR; settings: HEK293, read-out: Glutamate potentiation of GABA currents, % of control, normalized to wild-type α1β2
T8 construct: expressed in transfected cells; host or cells: HEK293
Description: as §3, §1, §5, §2

αK104Dβ GABAAR = molecular target: T9, αK104Dβ GABAAR (Rattus norvegicus, UniProt P62813+P63138, K131D); experiment: Patch clamp, HEK293, mutant α1β2 GABAAR; settings: HEK293, read-out: Glutamate potentiation of GABA currents, % of control, normalized to wild-type α1β2
T9 construct: expressed in transfected cells; host or cells: HEK293
Description: as §3, §1, §5, §2

αK155Dβ GABAAR = molecular target: T10, αK155Dβ GABAAR (Rattus norvegicus, UniProt P62813+P63138, K182D); experiment: Patch clamp, HEK293, mutant α1β2 GABAAR; settings: HEK293, read-out: Glutamate potentiation of GABA currents, % of control, normalized to wild-type α1β2
T10 construct: expressed in transfected cells; host or cells: HEK293
Description: as §3, §1, §5, §2

αβE181G GABAAR = molecular target: T11, αβE181G GABAAR (Rattus norvegicus, UniProt P62813+P63138, E206G); experiment: Patch clamp, HEK293, mutant α1β2 GABAAR; settings: HEK293, read-out: Glutamate potentiation of GABA currents, % of control, normalized to wild-type α1β2
T11 construct: expressed in transfected cells; host or cells: HEK293
Description: as §3, §1, §5, §2

T2 sequence (P62813 28-455): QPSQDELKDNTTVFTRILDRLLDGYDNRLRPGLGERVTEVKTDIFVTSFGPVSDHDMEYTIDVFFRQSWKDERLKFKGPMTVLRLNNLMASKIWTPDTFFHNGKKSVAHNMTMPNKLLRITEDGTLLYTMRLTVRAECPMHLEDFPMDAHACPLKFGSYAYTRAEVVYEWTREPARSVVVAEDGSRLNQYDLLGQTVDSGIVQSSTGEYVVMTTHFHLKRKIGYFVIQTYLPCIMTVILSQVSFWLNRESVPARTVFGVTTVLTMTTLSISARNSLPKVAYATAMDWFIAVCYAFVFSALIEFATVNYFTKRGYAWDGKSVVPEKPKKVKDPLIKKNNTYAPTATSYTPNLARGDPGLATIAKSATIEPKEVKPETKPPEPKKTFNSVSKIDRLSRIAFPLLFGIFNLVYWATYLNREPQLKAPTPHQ
T2 sequence (P63138 26-474 E206G): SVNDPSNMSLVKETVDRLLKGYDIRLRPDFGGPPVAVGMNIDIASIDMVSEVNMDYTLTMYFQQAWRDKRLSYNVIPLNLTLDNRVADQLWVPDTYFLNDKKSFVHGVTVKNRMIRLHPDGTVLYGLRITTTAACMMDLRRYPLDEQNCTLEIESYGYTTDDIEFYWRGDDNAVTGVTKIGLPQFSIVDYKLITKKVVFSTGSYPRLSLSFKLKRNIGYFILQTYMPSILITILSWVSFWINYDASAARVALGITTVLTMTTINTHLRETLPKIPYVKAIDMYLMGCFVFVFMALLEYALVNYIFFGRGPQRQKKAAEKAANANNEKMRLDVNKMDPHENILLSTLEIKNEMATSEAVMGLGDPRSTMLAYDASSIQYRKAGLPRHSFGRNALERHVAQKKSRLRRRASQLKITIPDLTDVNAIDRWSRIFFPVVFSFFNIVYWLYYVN
T2 sequence (P18508 39-466 partner): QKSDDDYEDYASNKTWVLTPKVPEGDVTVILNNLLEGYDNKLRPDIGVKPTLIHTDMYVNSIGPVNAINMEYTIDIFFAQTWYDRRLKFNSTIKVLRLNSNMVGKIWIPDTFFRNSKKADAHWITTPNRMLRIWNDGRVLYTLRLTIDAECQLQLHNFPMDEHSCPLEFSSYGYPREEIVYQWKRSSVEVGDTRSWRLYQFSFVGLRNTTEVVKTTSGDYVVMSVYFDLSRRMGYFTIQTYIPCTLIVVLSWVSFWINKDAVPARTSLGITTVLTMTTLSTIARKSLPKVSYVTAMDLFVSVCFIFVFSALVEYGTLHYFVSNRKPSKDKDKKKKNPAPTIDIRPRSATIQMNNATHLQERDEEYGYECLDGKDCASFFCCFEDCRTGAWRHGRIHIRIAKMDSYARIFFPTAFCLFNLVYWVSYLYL
T1 sequence (P62813 28-455): as the sequence (P62813 28-455) above
T1 sequence (P63138 26-474): as the sequence (P63138 26-474 E206G) above, with G181E counted along it
T9 sequence (P62813 28-455 K131D): as the sequence (P62813 28-455) above, with K104D counted along it
T9 sequence (P63138 26-474): as the sequence (P63138 26-474 E206G) above, with G181E counted along it
T8 sequence (P62813 28-455 E164G): as the sequence (P62813 28-455) above, with E137G counted along it
T8 sequence (P63138 26-474): as the sequence (P63138 26-474 E206G) above, with G181E counted along it
T6 sequence (P62813 28-455): as the sequence (P62813 28-455) above
T6 sequence (P63138 26-474 E206G): as the sequence (P63138 26-474 E206G) above
T6 sequence (P18508 39-466 R235E): as the sequence (P18508 39-466 partner) above, with R197E counted along it
T11 sequence (P62813 28-455): as the sequence (P62813 28-455) above
T11 sequence (P63138 26-474 E206G): as the sequence (P63138 26-474 E206G) above
T10 sequence (P62813 28-455 K182D): as the sequence (P62813 28-455) above, with K155D counted along it
T10 sequence (P63138 26-474): as the sequence (P63138 26-474 E206G) above, with G181E counted along it
T5 sequence (P62813 28-455 K182D): as the sequence (P62813 28-455) above, with K155D counted along it
T5 sequence (P63138 26-474, stated change not applied): as the sequence (P63138 26-474 E206G) above, with G181E counted along it
T5 sequence (P18508 39-466 E206K): as the sequence (P18508 39-466 partner) above, with E168K counted along it
T3 sequence (P62813 28-455 E164G): as the sequence (P62813 28-455) above, with E137G counted along it
T3 sequence (P63138 26-474): as the sequence (P63138 26-474 E206G) above, with G181E counted along it
T3 sequence (P18508 39-466 partner): as the sequence (P18508 39-466 partner) above
T7 sequence (P62813 28-455): as the sequence (P62813 28-455) above
T7 sequence (P63079 26-473): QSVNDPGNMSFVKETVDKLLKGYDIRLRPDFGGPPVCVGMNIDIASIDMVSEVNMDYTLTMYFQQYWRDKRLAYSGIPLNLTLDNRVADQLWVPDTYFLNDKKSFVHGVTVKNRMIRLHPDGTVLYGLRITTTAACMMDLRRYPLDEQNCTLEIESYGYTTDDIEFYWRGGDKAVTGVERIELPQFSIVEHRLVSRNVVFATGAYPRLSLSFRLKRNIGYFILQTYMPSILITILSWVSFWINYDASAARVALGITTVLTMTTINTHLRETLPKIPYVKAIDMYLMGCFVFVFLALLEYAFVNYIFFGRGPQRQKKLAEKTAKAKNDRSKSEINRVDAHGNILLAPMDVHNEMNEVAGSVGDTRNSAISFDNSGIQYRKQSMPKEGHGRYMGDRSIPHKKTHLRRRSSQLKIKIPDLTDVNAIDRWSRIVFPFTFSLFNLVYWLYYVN
T7 sequence (P18508 39-466 partner): as the sequence (P18508 39-466 partner) above
T4 sequence (P62813 28-455 K182D): as the sequence (P62813 28-455) above, with K155D counted along it
T4 sequence (P63138 26-474): as the sequence (P63138 26-474 E206G) above, with G181E counted along it
T4 sequence (P18508 39-466 partner): as the sequence (P18508 39-466 partner) above

In the case of `N[C@@H](CCC(=O)O)C(=O)O` [glutamate, Glutamate], the “amplitude of GABA-induced currents with glutamate co-applied” value (rat α1β2 GABAARs) is reported as 331.2 ± 44.5%, the “current produced by glutamate on its own” value (rat α1β2 GABAARs) is reported as “no noticeable current” and the “lowest effective dose (20% potentiation)” value (rat α1β2 GABAARs) is reported as “around 30 μM”. The “potentiation effect at saturated GABA concentration” value (rat α1β2 GABAARs) was “almost no potentiation effect”, the EC50 (rat α1β2 GABAARs; potentiation of 1 μM GABA-induced currents, read-out: EC50 of glutamate potentiation) was roughly 180 µM and the “Relative potentiation, % of control” value (α1 β2^E181G γ2 GABAAR; Glu 1 mM, GABA 1 µM) was 1.8 ± 9.6%. The Relative potentiation (α1 β2^E181G γ2 GABAAR) was 1.6 ± 11.6%, the Relative potentiation (α1 β2^E181G γ2 GABAAR; listed as Glu) was 1.6 ± 11.6% and the “Relative potentiation, % of control” value (α1^E137G β2 γ2 GABAAR) was 26.9 ± 6.4%. The “Relative potentiation, % of control” value (α1^K155D β2 γ2 GABAAR) was 19.8 ± 11.7%, the “restored potentiation, % of wild-type α1β2γ2” value (“restored potentiation, %” below) (α1K155Dβ2γ2E168K GABAAR; 100 μM glutamate) was 71.8 ± 14.7% and the “restored potentiation, %” value (α1K155Dβ2γ2E168K GABAAR; 1 mM glutamate) was 76.4 ± 10%. For the same molecule, the “restored potentiation, %” value ([1]; Glu 100 μM) was 76.6 ± 10.4%, the “restored potentiation, %” value ([1]; Glu 1 mM) was 84.5 ± 16.9% and the “potentiation of GABA-induced currents by glutamate” value (α1/β3/γ2 GABAAR) was “could also potentiate GABA-induced currents”. For the same molecule, the activity at 100 µM (αE137Gβ GABAAR; Glu 100 μM) was 109 ± 30.2%, the activity at 1000 µM (αE137Gβ GABAAR; Glu 1 mM) was 88.4 ± 5.9% and the activity at 100 µM (αK104Dβ GABAAR; Glu 100 μM) was 48.8 ± 9.5%. It also gave an activity at 1000 µM (αK104Dβ GABAAR; Glu 1 mM) of 94.7 ± 20.7%, an activity at 100 µM (αK155Dβ GABAAR; Glu 100 μM) of 76.3 ± 10.5% and an activity at 1000 µM (αK155Dβ GABAAR; Glu 1 mM) of 90.1 ± 11.3%. For the same molecule, the activity at 100 µM (αβE181G GABAAR; Glu 100 μM) was 51.2 ± 9.5% and the activity at 1000 µM (αβE181G GABAAR; Glu 1 mM) was 50.6 ± 8.4%.
